Values of other authors, collected in patent US7932258B2, “Use of a partially neutralized, anionic (meth) acrylate copolymer as a coating for the production of a medicament pharmaceutical form releasing active substance at reduced pH values” (Evonik Roehm GmbH, priority 2005, dated 2011).

Conditions: pH 4.0

## CC(=O)Oc1ccccc1C(=O)O [Acetylsalicylic acid]
  Solubility and stability of the active substance: adequately soluble and stable
